According to article PMC11007962, “First-in-human study of GFH018, a small molecule inhibitor of transforming growth factor-β receptor I inhibitor, in patients with advanced solid tumors” (BMC Cancer, 2024):
Marks after values point to notes of the source that are not given here.

How the values were obtained:
[1] = Plasma pharmacokinetics (LC-MS/MS, noncompartmental analysis); format: in vivo, human
Description: For patients enrolled in the escalation part of the study, PK blood samples were collected at C1D1 predose; 0.5 h, 1 h, 2 h, 4 h, 8 h, and 12 h postdose; d 2 (24 h), d 3 (48 h), d 4 (72 h), and d 10 predose; d 17 (for 14 d-on/14 d-off regimen) or d 24 (for 7 d-on/7 d-off regimen) predose; and 0.5 h, 1 h, 2 h, 4 h, 8 h, and 12 h postdose. For patients enrolled in the expansion part, PK samples were collected predose on the last administration day and 0.5 h, 1 h, 2 h, 4 h, 8 h, and 12 h postdose on the last administration day. GFH018 levels in plasma samples were analyzed using a validated liquid chromatography-tandem mass spectrometry method. GFH018 PK parameters were determined using noncompartmental analysis methods and calculated using Phoenix WinNonlin Version 8.3.1 (Certara, Princeton, NJ, USA). GFH018 plasma concentrations and PK parameters were summarized descriptively according to the dose level.

[2] = system: pSMAD3; design: method as in preclinical studies (reference not given); conditions: mouse H22 models, ref preclinical studies (reference not given), cited from earlier work
[3] = design: method as in doi:10.1158/1538-7445.AM2019-3072; conditions: preclinical; cited from earlier work
[4] = multiple dose, 5 mg BID 14d-on/14d-off (N=3)
[5] = multiple dose, 10 mg BID 14d-on/14d-off (N=3)
[6] = multiple dose, 20 mg BID 14d-on/14d-off (N=3)
[7] = multiple dose, 30 mg BID 14d-on/14d-off (N=7)
[8] = multiple dose, 40 mg BID 14d-on/14d-off (N=3)
[9] = multiple dose, 50 mg BID 14d-on/14d-off (N=2)
[10] = multiple dose, 65 mg BID 14d-on/14d-off (N=6)
[11] = multiple dose, 85 mg BID 7d-on/7d-off (N=5)
[12] = multiple dose, 85 mg BID 14d-on/14d-off (N=7), escalation and expansion parts combined
[13] = single dose, 5 mg BID 14d-on/14d-off (N = 4)
[14] = single dose, 10 mg BID 14d-on/14d-off (N = 3)
[15] = single dose, 20 mg BID 14d-on/14d-off (N = 4)
[16] = single dose, 30 mg BID 14d-on/14d-off (N = 7)
[17] = single dose, 40 mg BID 14d-on/14d-off (N = 4)
[18] = single dose, 50 mg BID 14d-on/14d-off (N = 4)
[19] = single dose, 65 mg BID 14d-on/14d-off (N = 6)
[20] = single dose, 85 mg BID 7d-on/7d-off (N = 6)
[21] = single dose, 85 mg BID 14d-on/14d-off (N = 9), dose escalation part only

Compound: Cc1cccc(-c2nn3c(c2-c2ccc4ncnn4c2/C=C/C(N)=O)CCC3)n1 [GFH018]
- PK linearity ([1]; 5 – 85 mg): linear and dose-independent
- mean half-life ([1]; 5 – 85 mg (single and multiple dose)): 2.25 to 8.60 h
- geometric CV% of exposure (Cmax and AUC) at the steady state ([1]; all cohorts): 7.3–168.9%
- AUCtau, geometric mean (geometric CV) [1, 4]: 597 (61.1) h*ng/mL
- Cmax, geometric mean (geometric CV) [1, 4]: 165 (15.7) ng/mL
- Cmin, geometric mean (geometric CV) [1, 4]: 7.48 (208.2) ng/mL
- Racc (accumulation ratio calculated by AUC), geometric mean (geometric CV) [1, 4]: 1.02 (37.9)
- Tmax, median (minimum, maximum) [1, 4]: 0.88 (0.42, 0.95) h
- t1/2, geometric mean (geometric CV) [1, 4]: 2.67 (31.0) h
- AUCtau, geometric mean (geometric CV) [1, 5]: 997 (168.9) h*ng/mL
- Cmax, geometric mean (geometric CV) [1, 5]: 291 (124.9) ng/mL
- Cmin, geometric mean (geometric CV) [1, 5]: 15.8 (212.1) ng/mL
- Racc (accumulation ratio calculated by AUC), geometric mean (geometric CV) [1, 5]: 1.22 (40.3)
- Tmax, median (minimum, maximum) [1, 5]: 0.92 (0.90, 1.27) h
- t1/2, geometric mean (geometric CV) [1, 5]: 2.25 (26.5) h
- AUCtau, geometric mean (geometric CV) [1, 6]: 2056 (76.9) h*ng/mL
- Cmax, geometric mean (geometric CV) [1, 6]: 676 (48.0) ng/mL
- Cmin, geometric mean (geometric CV) [1, 6]: 25.5 (137.3) ng/mL
- Racc (accumulation ratio calculated by AUC), geometric mean (geometric CV) [1, 6]: 1.15 (17.4)
- Tmax, median (minimum, maximum) [1, 6]: 0.93 (0.57, 1.08) h
- t1/2, geometric mean (geometric CV) [1, 6]: 2.55 (24.6) h
- AUCtau, geometric mean (geometric CV) [1, 7]: 5605 (76.6) h*ng/mL
- Cmax, geometric mean (geometric CV) [1, 7]: 1167 (87.9) ng/mL
- Cmin, geometric mean (geometric CV) [1, 7]: 144 (107.2) ng/mL
- Racc (accumulation ratio calculated by AUC), geometric mean (geometric CV) [1, 7]: 1.32 (39.4)
- Tmax, median (minimum, maximum) [1, 7]: 1.10 (0.47, 2.58) h
- t1/2, geometric mean (geometric CV) [1, 7]: 4.09 (36.8) h
- AUCtau, geometric mean (geometric CV) [1, 8]: 5144 (30.3) h*ng/mL
- Cmax, geometric mean (geometric CV) [1, 8]: 1599 (33.7) ng/mL
- Cmin, geometric mean (geometric CV) [1, 8]: 21.0 (2741.3) ng/mL
- Racc (accumulation ratio calculated by AUC), geometric mean (geometric CV) [1, 8]: 1.18 (6.7)
- Tmax, median (minimum, maximum) [1, 8]: 0.88 (0.38, 1.00) h
- t1/2, geometric mean (geometric CV) [1, 8]: 2.45 (42.8) h
- AUCtau, geometric mean (geometric CV) [1, 9]: 4432 (43.6) h*ng/mL
- Cmax, geometric mean (geometric CV) [1, 9]: 1253 (7.3) ng/mL
- Cmin, geometric mean (geometric CV) [1, 9]: 91.4 (72.9) ng/mL
- Racc (accumulation ratio calculated by AUC), geometric mean (geometric CV) [1, 9]: 1.26 (9.2)
- Tmax, median (minimum, maximum) [1, 9]: 0.75 (0.50, 1.00) h
- t1/2, geometric mean (geometric CV) [1, 9]: 3.53 (3.1) h
- AUCtau, geometric mean (geometric CV) [1, 10]: 8189 (29.3) h*ng/mL
- Cmax, geometric mean (geometric CV) [1, 10]: 2303 (34.0) ng/mL
- Cmin, geometric mean (geometric CV) [1, 10]: 129 (51.8) ng/mL
- Racc (accumulation ratio calculated by AUC), geometric mean (geometric CV) [1, 10]: 1.17 (25.3)
- Tmax, median (minimum, maximum) [1, 10]: 1.88 (0.50, 2.00) h
- t1/2, geometric mean (geometric CV) [1, 10]: 2.59 (9.6) h
- AUCtau, geometric mean (geometric CV) [1, 11]: 7732 (46.8) h*ng/mL
- Cmax, geometric mean (geometric CV) [1, 11]: 2193 (29.1) ng/mL
- Cmin, geometric mean (geometric CV) [1, 11]: 115 (92.5) ng/mL
- Racc (accumulation ratio calculated by AUC), geometric mean (geometric CV) [1, 11]: 1.04 (32.5)
- Tmax, median (minimum, maximum) [1, 11]: 0.50 (0.50, 1.00) h
- t1/2, geometric mean (geometric CV) [1, 11]: 2.92 (18.3) h
- AUCtau, geometric mean (geometric CV) [1, 12]: 11353 (27.9) h*ng/mL
- Cmax, geometric mean (geometric CV) [1, 12]: 3034 (33.6) ng/mL
- Cmin, geometric mean (geometric CV) [1, 12]: 164 (54.3) ng/mL
- Tmax, median (minimum, maximum) [1, 12]: 0.50 (0.50, 2.05) h
- Racc (accumulation ratio calculated by AUC), geometric mean (geometric CV) ([1]; multiple dose, 85 mg BID 14d-on/14d-off (N=7), n=5 for Racc): 1.18 (24.1)^e
- t1/2, geometric mean (geometric CV) ([1]; multiple dose, 85 mg BID 14d-on/14d-off (N=7), n=5 for t1/2): 3.01 (20.0)^d h
- geometric mean accumulation ratio (Racc, by AUC) across all dose groups ([1]; multiple doses): 1.02–1.32
- increase of exposure with dose ([1]; multiple doses / overall, 5–85 mg): increased in an approximately proportional manner
- accumulation ([1]; multiple doses, any cohort): No obvious accumulation
- absorption after oral administration ([1]; oral): rapidly absorbed
- increase of plasma exposure (AUC0-t and Cmax) with dose ([1]; single dose, 5–85 mg): increased in an approximately proportional manner
- AUC0-12, geometric mean (geometric CV) [1, 13]: 690 (51.3) h*ng/mL
- AUC0-inf, geometric mean (geometric CV) [1, 13]: 769 (58.3) h*ng/mL
- AUC0-t, geometric mean (geometric CV) [1, 13]: 754 (58.4) h*ng/mL
- Cmax, geometric mean (geometric CV) [1, 13]: 215 (50.2) ng/mL
- Tmax, median (minimum, maximum) [1, 13]: 0.65 (0.40, 0.97) h
- t1/2, geometric mean (geometric CV) [1, 13]: 4.42 (82.9) h
- AUC0-12, geometric mean (geometric CV) [1, 14]: 819 (99.0) h*ng/mL
- AUC0-inf, geometric mean (geometric CV) [1, 14]: 864 (110.5) h*ng/mL
- AUC0-t, geometric mean (geometric CV) [1, 14]: 852 (111.3) h*ng/mL
- Cmax, geometric mean (geometric CV) [1, 14]: 250 (72.2) ng/mL
- Tmax, median (minimum, maximum) [1, 14]: 0.88 (0.42, 0.93) h
- t1/2, geometric mean (geometric CV) [1, 14]: 3.11 (106.3) h
- AUC0-12, geometric mean (geometric CV) [1, 15]: 2551 (107.3) h*ng/mL
- AUC0-inf, geometric mean (geometric CV) [1, 15]: 2825 (123.9) h*ng/mL
- AUC0-t, geometric mean (geometric CV) [1, 15]: 2802 (123.7) h*ng/mL
- Cmax, geometric mean (geometric CV) [1, 15]: 743 (65.1) ng/mL
- Tmax, median (minimum, maximum) [1, 15]: 0.49 (0.43, 1.03) h
- t1/2, geometric mean (geometric CV) [1, 15]: 4.90 (115.1) h
- AUC0-12, geometric mean (geometric CV) [1, 16]: 4250 (50.4) h*ng/mL
- AUC0-inf, geometric mean (geometric CV) [1, 16]: 4926 (47.8) h*ng/mL
- AUC0-t, geometric mean (geometric CV) [1, 16]: 4895 (48.2) h*ng/mL
- Cmax, geometric mean (geometric CV) [1, 16]: 972 (82.7) ng/mL
- Tmax, median (minimum, maximum) [1, 16]: 0.95 (0.37, 3.80) h
- t1/2, geometric mean (geometric CV) [1, 16]: 5.74 (37.6) h
- AUC0-12, geometric mean (geometric CV) [1, 17]: 4147 (30.3) h*ng/mL
- AUC0-inf, geometric mean (geometric CV) [1, 17]: 4603 (35.2) h*ng/mL
- AUC0-t, geometric mean (geometric CV) [1, 17]: 4561 (35.3) h*ng/mL
- Cmax, geometric mean (geometric CV) [1, 17]: 1180 (24.7) ng/mL
- Tmax, median (minimum, maximum) [1, 17]: 0.69 (0.37, 0.90) h
- t1/2, geometric mean (geometric CV) ([1]; single dose, 40 mg BID 14d-on/14d-off (N = 4), n=3 for t1/2): 8.60 (103.8)^b h
- AUC0-12, geometric mean (geometric CV) [1, 18]: 5100 (57.9) h*ng/mL
- AUC0-inf, geometric mean (geometric CV) [1, 18]: 5906 (49.3) h*ng/mL
- AUC0-t, geometric mean (geometric CV) [1, 18]: 5858 (50.2) h*ng/mL
- Cmax, geometric mean (geometric CV) [1, 18]: 1209 (85.4) ng/mL
- Tmax, median (minimum, maximum) [1, 18]: 0.96 (0.47, 1.92) h
- t1/2, geometric mean (geometric CV) [1, 18]: 5.93 (51.2) h
- AUC0-12, geometric mean (geometric CV) [1, 19]: 7028 (10.9) h*ng/mL
- AUC0-inf, geometric mean (geometric CV) [1, 19]: 7870 (17.9) h*ng/mL
- AUC0-t, geometric mean (geometric CV) [1, 19]: 7831 (17.8) h*ng/mL
- Cmax, geometric mean (geometric CV) [1, 19]: 2172 (16.3) ng/mL
- Tmax, median (minimum, maximum) [1, 19]: 0.68 (0.48, 2.00) h
- t1/2, geometric mean (geometric CV) [1, 19]: 5.51 (34.3) h
- AUC0-12, geometric mean (geometric CV) [1, 20]: 7455 (27.3) h*ng/mL
- AUC0-inf, geometric mean (geometric CV) [1, 20]: 8284 (28.1) h*ng/mL
- AUC0-t, geometric mean (geometric CV) [1, 20]: 8240 (27.9) h*ng/mL
- Cmax, geometric mean (geometric CV) [1, 20]: 2555 (29.9) ng/mL
- Tmax, median (minimum, maximum) [1, 20]: 0.50 (0.50, 1.10) h
- t1/2, geometric mean (geometric CV) [1, 20]: 7.45 (61.8) h
- AUC0-12, geometric mean (geometric CV) [1, 21]: 10074 (42.0) h*ng/mL
- AUC0-inf, geometric mean (geometric CV) [1, 21]: 11164 (45.4) h*ng/mL
- AUC0-t, geometric mean (geometric CV) [1, 21]: 11119 (45.5) h*ng/mL
- Cmax, geometric mean (geometric CV) [1, 21]: 3225 (35.5) ng/mL
- Tmax, median (minimum, maximum) [1, 21]: 0.58 (0.45, 1.12) h
- t1/2, geometric mean (geometric CV) [1, 21]: 6.37 (41.6) h
- effective concentration (efficacy with approximately 50% inhibition of pSMAD3) ([2]; after the 1-h dose): 125 ng/ml
- inhibition of pSMAD3 at which efficacy was observed ([2]; at 125 ng/ml after the 1-h dose): approximately 50%
- effect in combination with anti-PD-1/L1 antibodies [3]: Synergistic effects were observed
